Reference: patent US20250134902A1, “DRUG REPURPOSING FOR DELAYED TREATMENT OF ISCHEMIC STROKE” (UNIVESRITY OF NORTH TEXAS HEALTH SCIENCE CENTER, priority 2022, published 2025)
Entries after “also recorded” stand apart in the source; their conditions may differ.

Columns and labels:
[1] = biological target: T1, human Sigma-1 receptor (S1R) (Homo sapiens, UniProt Q99720); experiment: Radioligand competition binding at Sigma-1 receptor ([3H]-(+)-pentazocine, MCF-7-hS1R)
T1 construct: expressed in transfected cells
T1 sequence (Q99720 whole entry): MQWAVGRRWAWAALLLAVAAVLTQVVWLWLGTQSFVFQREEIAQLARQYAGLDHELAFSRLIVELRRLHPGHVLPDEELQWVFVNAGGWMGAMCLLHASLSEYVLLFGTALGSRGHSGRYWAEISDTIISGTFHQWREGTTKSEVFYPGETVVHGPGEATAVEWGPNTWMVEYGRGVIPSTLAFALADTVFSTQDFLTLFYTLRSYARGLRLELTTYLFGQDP
Procedure: Measuring receptor density with radioligand binding.
Measuring the ligand affinities at SIR and S2R receptors by radioligand binding. […] Binding conditions were the same as described previously for the S1R (Schetz, et al., 2007): binding buffer (Tris 50 mM, pH=8.1 at 37° C.), ice-cold wash buffer (Tris 10 mM, pH=8.1 at 0-2° C.), and incubation time (3 hrs at 37° C.) with shaking. Non-specific binding for the S1R and S2R was determined in the presence of 5 μM BD1063 and […] haloperidol, respectively. Following incubation, receptors were collected via rapid filtration through GF/C filters (Brandel, Gaithersburg, MD) followed by washing three times with 3 mL of ice-cold wash buffer. Dried filters were transferred to vials filled with 3.5 ml of scintillation fluid, and the radioactivity was quantified on a liquid scintillation analyzer (TRICARB® 2800TR) from Perkin Elmer (Saint Louis, MO). Mean values from duplicate or triplicate determinations are reported along with their associated standard error of the mean (SEM). Ki values were calculated from IC50 values using the Cheng-Prusoff equation. The concentration of membrane protein was determined using a PIERCE® BCA Protein Assay kit (Life Technologies, Grand Island, NY) following the manufacturer's protocol.
Referring to FIG. 1, the selectivity of potential S1R ligands over S2R was empirically evaluated. Human MCF-7 cells were used as the source of the S2R because these cells express the endogenous S2R (Vilner, John, et al., 1995; Wu & Bowen, 2008) but lack detectable levels of the S1R, allowing unambiguous detection of S2R activity in untransfected cells (Schetz, et al., 2007). MCF-7 cells stably expressing the cloned human S1R were used as the source of S1R.

[2] = tested on: rat model of focal cerebral ischemia (tMCAO); experiment: Neurological function after transient middle cerebral artery occlusion (Bederson, NDS, EBST); format: in vivo; conditions: for Neurological Deficit Score (NDS), Dunn's test: 135 mg/kg/d p.o.
Procedure: Evaluating the effect of Sigma receptor agonists in a rat model of focal cerebral ischemia. Rats were anesthetized with 5% isoflurane in oxygen and maintained at ˜2% through a nosecone. Core temperature was maintained with an infrared heating pad controlled by a rectal probe. Transient middle cerebral artery occlusion (tMCAO) was performed as previously described (Oppong-Gyebi et al., 2022). Briefly, a midline incision was made from the neck to the sternum. The left common carotid artery and bifurcation was mobilized, and a silicon-coated suture (Doccol, Sharon MA) was inserted through the external carotid artery into the internal carotid artery to reach the origin of the MCA at the base of the brain. The incision was closed, and rats were allowed to awaken so that successful occlusion could be assessed. Rats not displaying hemiparesis immediately post-surgery were excluded from the study. After 85-90 minutes occlusion, rats were anesthetized, and the suture was withdrawn to allow reperfusion. Rats were injected subcutaneously with 5 ml saline bilaterally to provide hydration during recovery. On the day following tMCAO, rats were assessed for persistent signs of stroke.
Only rats displaying hemiparesis immediately post-surgery were included in the study. Rats with a Bederson score of 0 or <50% contralateral bias on the elevated body swing test (EBST) (Borlongan and Sanberg, 1995) on Day 1 after tMCAO were excluded from the study. Animals that became moribund or died within 24 hours of tMCAO were excluded from the study.
Two days before tMCAO rats were trained to lick 5% sucrose from a 1 ml syringe. After behavioral assessment on Day 1 after tMCAO, rats were randomly assigned to 4 groups in a blinded fashion. Groups included sucrose Vehicle, or 45, 68 or 135 mg/kg oxeladin. Oxeladin was prepared in 5% sucrose and provided to rats from the end of a 1 ml syringe. Starting 48 hours after stroke, rats were administered treatments daily from day 3 to day 14. On days 3-14 rats were injected i.p. with 50 mg/kg bromodeoxyuridine (BrdU; Fisher Bioreagents). At the conclusion of the study, rats were euthanized under deep isoflurane anesthesia. Rats were transcardially perfused with cold saline and either decapitated for brain collection and flash freezing of brain tissue or transcardially perfused with 4% formaldehyde for immunohistochemical studies.
On days 1, 3, 7, and 14 after tMCAO, rats underwent a series of behavioral tests by a treatment blinded observer. All tests were performed in a room dimly lit with red light. Rats were assessed by the Bederson test (Bederson et al., 1986), and an 11-point Neurological Deficit test as previously described (Oppong-Gyebi et al., 2022). The elevated body swing test (EBST) was performed in an open field with 30 seconds between each of 20 lifts by the base of the tail (Borlongan and Sanberg, 1995). The EBST was scored as percent of nose swing to the contralateral side to the tMCAO.
The observer scored the rats using the Bederson test, which evaluates global neurological function and grades rodents on a scale of 0-5. Grade 0 (no defects) is assigned if animals extend both forelimbs toward the floor when suspended above the floor. Grade 1 (mild defects) is given when animals show forelimb flexion without any other abnormality. Grade 2 (modest defects) is given when animals display forelimb flexion and decreased resistance to lateral push toward the paretic side. Animals further showing circling behavior are scored Grade 3 (severe defects).
The observer also scored the rats using the Elevated Body Swing Test (EBST) in which rats lifted by the tail and held vertically swing their heads to the left or to the right. Whereas healthy animals on a group level are likely to swing approximately 50% to either side, animals with a unilateral cerebral lesion, e.g. ischemic stroke, should present with a dominant/biased swing direction.

[3] = 68 mg/kg/d p.o. starting 48 hours after tMCAO, days 7 and 14

`CCN(CC)CCOCCOC(=O)C(CC)(CC)c1ccccc1` [Oxeladin] was tested. Which “selective for S1R over S2R” value [1] did it give?
Its value is 9 fold.

And the Ki ([1]; displacement of 0.5 nM [3H]-(+)-pentazocine, MCF-7 cells expressing human S1R, average of 2-3 experiments ± SEM, read-out: S1R affinity (Ki))?
Its Ki is 0.025 ± 0.0043 µM.

And the “S2R/S1R ratio (Ki S2R/Ki S1R)” value ([1]; selectivity for S1R over S2R)?
The value was 6.

And the “Bederson score vs Vehicle” value [2, 3]?
The value was “significantly improved”.

What about the “Elevated Body Swing Test (EBST) vs Vehicle” value [2, 3] of the same compound?
Its value is “significantly improved”.

What about the “Bederson score vs Vehicle” value ([2]; 135 mg/kg/d p.o. starting 48 hours after tMCAO, days 3, 7 and 14) of the same compound?
The value was “significant improvements; also recorded: significantly improved”.

And the “Neurological Deficit Score (NDS) vs Vehicle” value ([2]; 135 mg/kg/d p.o. starting 48 hours after tMCAO, days 3 and 7)?
Its value is “significantly improved”.

What about the “Elevated Body Swing Test (EBST) vs Vehicle” value ([2]; 135 mg/kg/d p.o. starting 48 hours after tMCAO, days 7 and 14) of the same compound?
The value was “not 135 mg/kg showed improvement”.

And the “Neurological Deficit Score (NDS), Dunn's test” value ([2]; day 3 (P=0.072))?
The value was “trend for improvement”.

And the “Neurological Deficit Score (NDS), Dunn's test” value ([2]; day 7 (P=0.028))?
The value was “significant improvements”.

And the “functional recovery after tMCAO” value ([2]; overall conclusion, p.o. dosing)?
The value was “improves functional recovery”.
